Measured values as given in US20230031406A1, “COMPOUNDS AND COMPOSITIONS FOR TREATING CONDITIONS ASSOCIATED WITH NLRP ACTIVITY” (Novartis AG, priority 2018, published 2023).
pIC50: −log10 of the molar value. Read-outs that look alike come from different tables or passages of the source. Values belong to the molecule of their own block, whether it stands above or below them.

Tested on: PMA-differentiated THP-1 cells
Test: IL-1β production in PMA-differentiated THP-1 cells stimulated with gramicidin (hTHP-1 assay containing 2% fetal bovine serum; Procedures 1 and 2)
Type: cell-based, human
Details: 2% fetal bovine serum
Procedure, shortened: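 Compound titrations in 0.37% final DMSO were added to THP-1 cells that had been plated after 16-18 h PMA treatment, 50,000 per well in 2% FBS. One hour later the cells received gramicidin (5 μM, 2 h) and were centrifuged. HTRF detected IL-1β in the collected supernatants.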

[1] = Table B1, class symbols, read-out: Average IC50 of compounds in hTHP-1 assay: hTHP-1 IC50
[2] = Table B2, class symbols, read-out: hTHP-1 IC50
[3] = Homo sapiens, THP-1, Table B2, numeric bounds, read-out: hTHP-1 IC50
[4] = Table B4, class symbols, read-out: hTHP-1 IC50
[5] = Homo sapiens, THP-1, Table B2, class symbols, read-out: hTHP-1 IC50
[6] = Homo sapiens, THP-1, Table B1, class symbols, read-out: Average IC50 of compounds in hTHP-1 assay: hTHP-1 IC50
[7] = Table B3, hTHP-1 assay, class symbols, read-out: IC50

Compound: CC(C)n1ccc(S(N)(=O)=NC(=O)Nc2c3c(nc4c2CCC42CC2)CCC3)n1 (single isomer, unassigned) [Compound 172b, (R) or (S)-1-Isopropyl-N′-((1′,5′,6′,7′-tetrahydro-2′H-spiro[cyclopropane-1,3′-dicyclopenta[b,e]pyridin]-8′-yl)carbamoyl)-1H-pyrazole-3-sulfonimidamide]
- pIC50 [1]: 6.00 to 6.70

Compound: Cc1c(C(F)(F)F)nc2c(c1NC(=O)N=S(N)(=O)c1ccn(C(F)F)n1)CCC2 (single isomer, unassigned) [Compound 621a, (S) or (R)-1-(Difluoromethyl)-N′-((3-methyl-2-(trifluoromethyl)-6,7-dihydro-5H-cyclopenta[b]pyridin-4-yl)carbamoyl)-1H-pyrazole-3-sulfonimidamide]
- pIC50 [2]: 4.52 to 5.30

Compound: CC(C)n1cc(S(N)(=O)=NC(=O)Nc2c3c(nc4c2CCC4(C)C)CCC3)c(CO)n1 (single isomer, unassigned) [Compound 653b, (S) or (R)-N′-((3,3-dimethyl-1,2,3,5,6,7-hexahydrodicyclopenta [b,e]pyridin-8-yl)carbamoyl)-3-(hydroxymethyl)-1-isopropyl-1H-pyrazole-4-sulfonimidamide]
- pIC50 [3]: < 4.52

Compound: CC(C)n1cc(F)c(S(N)(=O)=NC(=O)Nc2c3c(nc4c2CCC4)CCC3)n1 (single isomer, unassigned) [Example 785, (R) or (S)-4-fluoro-N′-((1,2,3,5,6,7-hexahydrodicyclopenta [b,e]pyridin-8-yl)carbamoyl)-1-isopropyl-1H-pyrazole-3-sulfonimidamide]
- pIC50 [4]: 6.70 to 7.40

Compound: Cc1c(C(F)(F)F)nc2c(c1NC(=O)N=S(N)(=O)c1nn(C(C)C)cc1F)CCC2 (single isomer, unassigned) [Example 789, (R) or (S)-4-fluoro-1-isopropyl-N′-((3-methyl-2-(trifluoromethyl)-6,7-dihydro-5H-cyclopenta[b]pyridin-4-yl)carbamoyl)-1H-pyrazole-3-sulfonimidamide]
- pIC50 [4]: 6.70 to 7.40

Compound: CC(C)(O)c1cc(C#N)cc(S(N)(=O)=NC(=O)Nc2c3c(nc4c2CCC4(C)C)CCC3)c1 (stereo not shown) [Compound 674, 3-Cyano-N′-((3,3-dimethyl-1,2,3,5,6,7-hexahydrodicyclopenta[b,e]pyridin-8-yl)carbamoyl)-5-(2-hydroxypropan-2-yl)benzenesulfonimidamide]
- pIC50 [5]: 5.30 to 6.00

Compound: Cc1cc(C2CC2)nc(NC(=O)N=S(N)(=O)c2ncc(C(C)(C)O)s2)n1 (single isomer, unassigned) [Compound 185a, (R) or (S)-N′-((4-cyclopropyl-6-methylpyrimidin-2-yl)carbamoyl)-5-(2-hydroxypropan-2-yl)thiazole-2-sulfonimidamide]
- pIC50 [6]: 4.52 to 5.30
- pIC50 [5]: 4.52 to 5.30

Compound: CCn1ccc(S(N)(=O)=NC(=O)Nc2c3c(nc4c2CCC42CC2)CCC3)n1 (single isomer, unassigned) [Example 688, (S) or (R)-1-Ethyl-N′-((1′,5′,6′,7′-tetrahydro-2′H-spiro[cyclopropane-1,3′-dicyclopenta[b,e]pyridin]-8′-yl)carbamoyl)-1H-pyrazole-3-sulfonimidamide]
- pIC50 [7]: 4.52 to 5.30

Compound: NS(=O)(=NC(=O)Nc1c2c(nc(C3CC3)c1C1CC1)CCC2)c1ccn(C(F)F)n1 (single isomer, unassigned) [Example 696, (S) or (R)-N′-((2,3-dicyclopropyl-6,7-dihydro-5H-cyclopenta [b]pyridin-4-yl)carbamoyl)-1-(difluoromethyl)-1H-pyrazole-3-sulfonimidamide]
- pIC50 [7]: 4.52 to 5.30

Compound: CC1(C)CCc2c1nc1c(c2NC(=O)N=S(N)(=O)c2nn(C(F)F)cc2F)CCC1 (single isomer, unassigned) [Example 722, (S) or (R)-1-(difluoromethyl)-N′-((3,3-dimethyl-1,2,3,5,6,7-hexahydrodicyclopenta[b,e]pyridin-8-yl)carbamoyl)-4-fluoro-1H-pyrazole-3-sulfonimidamide]
- pIC50 [7]: 5.30 to 6.00

Compound: CCn1nc(S(N)(=O)=NC(=O)Nc2c3c(nc4c2CCC42CC2)CCC3)cc1CO (stereo not shown) [Example 589, 1-Ethyl-5-(hydroxymethyl)-N′-((1′,5′,6′,7′-tetrahydro-2′H-spiro[cyclopropane-1,3′-dicyclopenta[b,e]pyridin]-8′-yl)carbamoyl)-1H-pyrazole-3-sulfonimidamide]
- pIC50 (Homo sapiens, THP-1, Table B3, hTHP-1 assay, class symbols, read-out: IC50): 5.30 to 6.00

Compound: CCc1c(C(F)(F)F)nc2c(c1NC(=O)N=S(N)(=O)c1cc(C(C)(C)O)cs1)CCC2 (single isomer, unassigned) [Compound 698b, (R) or (S)-N′-((3-ethyl-2-(trifluoromethyl)-6,7-dihydro-5H-cyclopenta[b]pyridin-4-yl)carbamoyl)-4-(2-hydroxypropan-2-yl)thiophene-2-sulfonimidamide]
- pIC50 [2]: 6.00 to 6.70

The next lines start with the values.

- pIC50 (Homo sapiens, THP-1, Table B1, numeric bounds, read-out: Average IC50 of compounds in hTHP-1 assay: hTHP-1 IC50): < 4.52
Compound: Cc1c(-c2ccccc2)nc2c(c1NC(=O)N=S(N)(=O)c1cnc(C(C)(C)O)s1)CCC2 (single isomer, unassigned) [Compound 143a, (S) or (R)-2-(2-hydroxy-propan-2-yl)-N′-((3-methyl-2-phenyl-6,7-dihydro-5H-cyclopenta[b]pyridin-4-yl)carbamoyl)thiazole-5-sulfonimidamide]

- pIC50 (Table B1, numeric bounds, read-out: Average IC50 of compounds in hTHP-1 assay: hTHP-1 IC50): < 4.52
Compound: Cc1c(-c2ccccc2)nc2c(c1NC(=O)N=S(N)(=O)c1cnc(C(C)(C)O)s1)CCC2 (single isomer, unassigned) [Compound 143b, (R) or (S)-2-(2-hydroxy-propan-2-yl)-N′-((3-methyl-2-phenyl-6,7-dihydro-5H-cyclopenta[b]pyridin-4-yl)carbamoyl)thiazole-5-sulfonimidamide]

- pIC50 [2]: 4.52 to 5.30
Compound: Cc1c(C2CC2)nc2c(c1NC(=O)N=S(N)(=O)c1nc(C(C)(C)O)cs1)CCC2 (single isomer, unassigned) [Compound 626a]

- pIC50 [1]: 6.00 to 6.70
Compound: CC(C)(O)c1ncc(S(N)(=O)=NC(=O)Nc2c3c(nc4c2CCC4)CCC3)s1 (single isomer, unassigned) [Compound 128a, (R) or (S)-N′-((1,2,3,5,6,7-hexahydrodicyclo-penta[b,e]pyridin-8-yl)carbamoyl)-2-(2-hydroxypropan-2-yl)thiazole-5-sulfonimidamide]

- pIC50 [5]: 6.70 to 7.40
Compound: CC(C)(O)c1cc(F)c([S@](N)(=O)=NC(=O)Nc2c3c(nc(C4CC4)c2C2CC2)CCC3)s1 [Compound 727b]

- pIC50 (Homo sapiens, THP-1, Table B4, class symbols, read-out: hTHP-1 IC50): 6.70 to 7.40
Compound: C[C@@H]1CCc2c1nc1c(c2NC(=O)N=S(N)(=O)c2cnc([C@](C)(O)CO)s2)CCC1 (single isomer, unassigned) [Example 731]

- pIC50 [3]: < 4.52
Compound: Cc1nc2c(c(NC(=O)N=[S@@](N)(=O)c3cnc(C(C)(C)O)s3)c1C1CC1)CCC2 [Compound 738]

- pIC50 [6]: 5.30 to 6.00
Compound: CC(C)(O)c1cnc(S(N)(=O)=NC(=O)Nc2c3c(nc4c2CCC4)CCC3)s1 (stereo not shown) [Compound 167]

- pIC50 [1]: 7.40 to 8.10
Compound: CC(C)(O)c1cc(F)c(S(N)(=O)=NC(=O)Nc2c3c(nc4c2CCC42CC2)CCC3)s1 (single isomer, unassigned) [Compound 101b, (R) or (S)-3-fluoro-5-(2-hydroxypropan-2-yl)-N′-((1′,5′,6′,7′-tetrahydro-2′H-spiro[cyclopropane-1,3′-dicyclopenta[b,e]pyridin]-8′-yl)carbamoyl)thiophene-2-sulfonimidamide]

- pIC50 [1]: 5.30 to 6.00
Compound: CC1CCc2c1nc1c(c2NC(=O)N=S(N)(=O)c2ccn(C(F)F)n2)CCC1 (single isomer, unassigned) [Compound 184d, (S,R) or (S,S)-1-(difluoro-methyl)-N′-((3-methyl-1,2,3,5,6,7-hexahydro-dicyclopenta[b,e]pyridin-8-yl)carbamoyl)-1H-pyrazole-3-sulfonimidamide]

- pIC50 [2]: 6.70 to 7.40
Compound: C[C@@H]1CCc2c1nc1c(c2NC(=O)N=S(N)(=O)c2cc(F)c(C(C)(C)O)s2)CCC1 (single isomer, unassigned) [Compound 616a, (R) or (S)-4-Fluoro-5-(2-hydroxypropan-2-yl)-N′-(((R)-3-methyl-1,2,3,5,6,7-hexahydrodicyclopenta [b,e]pyridin-8-yl)carbamoyl) thiophene-2-sulfonimidamide]

- pIC50 [5]: 6.00 to 6.70
Compound: CC(C)c1nc2c(cc1NC(=O)N=[S@](N)(=O)c1cnc(C(C)(C)O)s1)CCC2 [Compound 601a]

- pIC50 (Homo sapiens, THP-1, Table B3, hTHP-1 assay, numeric values, read-out: IC50): < 4.52
Compound: CC(C)c1nc2c(cc1NC(=O)N=S(N)(=O)c1cnc(C(C)(C)O)s1)CCC2 (single isomer, unassigned) [Example 702, (S) or (R)-2-(2-Hydroxypropan-2-yl)-N′-((2-isopropyl-6,7-dihydro-5H-cyclopenta[b]pyridin-3-yl)carbamoyl)thiazole-5-sulfonimidamide]

- pIC50 [7]: 4.52 to 5.30
Compound: CC(=O)c1csc(S(N)(=O)=NC(=O)Nc2c3c(nc4c2CC[C@H]4C)CCC3)c1 (single isomer, unassigned) [Example 666, (S) or (R)-4-acetyl-N′-(((R)-3-methyl-1,2,3,5,6,7-hexahydrodicyclopenta[b,e]pyridin-8-yl)carbamoyl)thiophene-2-sulfonimidamide]

- pIC50 [5]: 4.52 to 5.30
Compound: CC1CCc2c1nc1c(c2NC(=O)N=S(N)(=O)c2cn(C(C)C)cn2)CCC1 (single isomer, unassigned) [Compound 660d, (R, R) or (S, R) or (R, S) or (S, S)-1-isopropyl-N′-((3-methyl-1,2,3,5,6,7-hexahydrodicyclopenta [b,e]pyridin-8-yl)carbamoyl)-1H-imidazole-4-sulfonimidamide]
